According to ChEMBL document CHEMBL1121791, “Computer-assisted structure-activity studies of chemical carcinogens. Aromatic amines” (J Med Chem, 1981):

Assays:
Format in all cases: functional, organism-based
[1] = test system: Rattus norvegicus; assay: Carcinogenic activity on ear duct after oral administration
[2] = test system: Rattus norvegicus; assay: Carcinogenic activity on all sites after oral administration
[3] = test system: Rattus norvegicus; assay: Carcinogenic activity on breast after oral administration of the compound
[4] = test system: Rattus norvegicus; assay: Carcinogenic activity on liver after oral administration
[5] = test system: Rattus norvegicus; assay: Carcinogenic activity on mixed data after oral administration
[6] = test system: Rattus norvegicus; assay: Carcinogenic activity on other sites after oral administration

Measured: Activity

CC(=O)Nc1ccc2c(c1F)Cc1ccccc1-2
Carcinogenic activity: [1] | [2] | [3]

O=C(Nc1ccc2c(c1)Cc1ccccc1-2)C(F)(F)F
not listed: [6]
Carcinogenic activity: all other assays above

Nc1ccc(-c2ccccc2)cc1F
Carcinogenic activity: [2] | [3]

Nc1cc2ccccc2c2ccccc12
Carcinogenic activity: [2] | [3]

Cn1cnc([N+](=O)[O-])c1Sc1ncnc2[nH]cnc12
Carcinogenic activity: [1] | [2] | [6]

CC(=O)Nc1ccc(/C=C/c2ccccc2)cc1
Carcinogenic activity: [1] | [2] | [3]

CC(=O)Nc1ccc2c(c1)Cc1c(F)cccc1-2
not listed: [6]
Carcinogenic activity: all other assays above

Cc1cc2ccccc2cc1N
Carcinogenic activity: [2] | [6] | [3]

CC(=O)N(O)c1ccc2c(c1)Cc1cc(F)ccc1-2
Carcinogenic activity: all assays above

CC(=O)Nc1ccc2c(c1)Cc1cc(NC(C)=O)ccc1-2
Carcinogenic activity: all assays above

ONc1cccc2ccccc12
Carcinogenic activity: [2] | [6]

CN(C)Nc1nc(-c2ccc([N+](=O)[O-])o2)cs1
Carcinogenic activity: [2] | [6]

CN(C)c1ccc(/C=C/c2ccccc2F)cc1
not listed: [6]
Carcinogenic activity: all other assays above

Cc1cccc(/C=C/c2ccc(N(C)C)cc2)c1
Carcinogenic activity: [1] | [2]

Nc1nc(N)nc(-c2ccc([N+](=O)[O-])o2)n1
Carcinogenic activity: [2] | [3]

CN(C)c1ccc2cc3ccc(N(C)C)cc3nc2c1
Carcinogenic activity: [2] | [4]

CC(=O)Nc1ccc2c(c1)oc1ccccc12
Carcinogenic activity: [1] | [2] | [3]

Nc1ccc(/N=N/c2ccccc2)cc1
Carcinogenic activity: [2] | [6]

CC(=O)Nc1cc(F)c2c(c1)Cc1ccccc1-2
Carcinogenic activity: [1] | [2] | [3]

CNc1ccc2c(c1)Cc1ccccc1-2
Carcinogenic activity: all assays above

Nc1ccc2c(c1)Cc1cc(N)ccc1-2
Carcinogenic activity: [2] | [3]

COc1cc(/N=N/c2ccccc2)ccc1N
not listed: [3]
Carcinogenic activity: all other assays above

CC(=O)Nc1cc2c(cc1I)-c1ccccc1C2
Carcinogenic activity: [1] | [2]

Cc1cc(Cc2ccc(N)c(C)c2)ccc1N
not listed: [1]
Carcinogenic activity: all other assays above

Nc1ccc(/C=C/c2ccc3ccccc3n2)cc1
Carcinogenic activity: [1] | [2]

CC(=O)Nc1nc(-c2ccc([N+](=O)[O-])o2)no1
Carcinogenic activity: [2] | [4] | [6]

CC(=O)N(O)c1ccc(-c2ccccc2)cc1
not listed: [4]
Carcinogenic activity: all other assays above

CN(C)c1ccc(/C=C/c2ccc(Cl)cc2)cc1
Carcinogenic activity: [1] | [2]

CC(=O)N(O)c1ccc(/C=C/c2ccccc2)cc1
not listed: [4]
Carcinogenic activity: all other assays above

CC(=O)Nc1ccc2c(c1)Cc1ccccc1S2
not listed: [4]
Carcinogenic activity: all other assays above

Nc1nc[nH]n1
Carcinogenic activity: [2] | [4] | [6]

CC(=O)Nc1cc2c(cc1F)-c1ccccc1C2
not listed: [6]
Carcinogenic activity: all other assays above

COc1ccc2c(c1)Cc1cc(NC(C)=O)ccc1-2
not listed: [6]
Carcinogenic activity: all other assays above

CC(=O)Nc1ccc2c(c1)Cc1cc(F)ccc1-2
not listed: [6]
Carcinogenic activity: all other assays above

CC(=O)Nc1ccc2c(c1)Cc1cccc(NC(C)=O)c1-2
Carcinogenic activity: [2] | [3]

Cc1cc(-c2ccccc2)ccc1N
Carcinogenic activity: [1] | [2] | [6]

CN(C)c1ccc(/C=C/c2ccc(F)cc2)cc1
Carcinogenic activity: [1] | [2]

Nc1ccc(-c2ccc(N)c(Cl)c2)cc1Cl
not listed: [4]
Carcinogenic activity: all other assays above

Nc1ccc2c(c1)CCc1ccccc1-2
Carcinogenic activity: [1] | [2] | [5] | [6]

COc1ccc(/N=N/c2ccc(N)c(OC)c2)cc1
Carcinogenic activity: [2] | [4] | [6]

Nc1ccc2ccc3ccccc3c2c1
Carcinogenic activity: [2] | [3]

O=CNc1nc(-c2ccc([N+](=O)[O-])o2)cs1
Carcinogenic activity: [2] | [6] | [3]

Nc1ccc(-c2cccc(F)c2)cc1
Carcinogenic activity: [2] | [3]

ONc1ccc(/C=C/c2ccccc2)cc1
Carcinogenic activity: [2] | [6]

Cc1cccc(/N=N/c2cc(C)ccc2N)c1
Carcinogenic activity: [2] | [4]

CC(=O)Nc1ccc2c(c1)Sc1ccccc1C2
not listed: [4]
Carcinogenic activity: all other assays above

CCN(CC)c1ccc2c(c1)Cc1ccccc1-2
Carcinogenic activity: [2] | [6]

CN(C)c1ccc(/C=C/c2ccccc2)cc1
Carcinogenic activity: [1] | [2]

NCC(=O)Nc1ccc2c(c1)-c1ccccc1C2
Carcinogenic activity: [2] | [4]

CC(=O)Nc1ccc2c(c1)Cc1cccc(F)c1-2
Carcinogenic activity: [1] | [2] | [3]

Nc1cc2ccccc2cc1[N+](=O)[O-]
Carcinogenic activity: [2] | [6]

O=C(O)CCC(=O)Nc1ccc2c(c1)Cc1ccccc1-2
Carcinogenic activity: [2] | [4]

O=CNc1ccc2c(c1)Cc1ccccc1-2
Carcinogenic activity: [1] | [2] | [3]

Nc1ccc(Cc2ccc(N)c(Cl)c2)cc1Cl
Carcinogenic activity: [2] | [4] | [6]
